Assay results: patent US11484543B2, “Compositions and methods for diagnosing and treating diseases and disorders associated with mutant KCNJ5” (The Rockefeller University, priority 2017, dated 2022)
Residue numbers refer to the chain shown, from its start. Where two headings read alike, the source gives them in different places.

Columns and labels:
Type in all cases: cell-based
[1] = target: T1, KCNJ5^G151R (Homo sapiens, UniProt P48544, G151R); assay: cell-based
T1 construct: expressed in transfected cells
T1 sequence (P48544 1-419 G151R): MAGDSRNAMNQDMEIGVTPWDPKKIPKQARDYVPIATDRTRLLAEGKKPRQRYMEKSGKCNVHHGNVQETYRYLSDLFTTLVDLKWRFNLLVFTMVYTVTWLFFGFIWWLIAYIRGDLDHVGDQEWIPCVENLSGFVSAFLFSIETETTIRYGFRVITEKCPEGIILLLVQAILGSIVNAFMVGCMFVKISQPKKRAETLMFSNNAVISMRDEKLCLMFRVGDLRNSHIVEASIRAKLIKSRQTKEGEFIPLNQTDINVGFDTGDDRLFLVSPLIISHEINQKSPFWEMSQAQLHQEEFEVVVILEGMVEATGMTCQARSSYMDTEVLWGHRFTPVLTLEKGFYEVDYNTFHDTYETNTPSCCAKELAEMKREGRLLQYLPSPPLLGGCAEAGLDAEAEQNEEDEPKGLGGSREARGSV
Procedure: (§1) WT or mutant human KCNJ5 cDNAs (Choi et al., 2011, Science 331:768-772) were subcloned into the pcDNA5/FRT/TO vector using BamHI and HindIII. Single copies of WT or mutant human KCNJ5 cDNAs expressed under the control of tetracycline-inducible promoter were introduced into HEK293 cells using the Flp-in T-Rex System (Invitrogen) according to the manufacturer's instructions. Cells were grown in selective media containing 10% Tet-system approved FBS (Clontech) until induction.
(§2) Assay plates were centrifuged and incubated overnight at 37° C. 20 nL was transferred from the compound source plate to the cell assay plate using an Aquarius (Tecan) with a 384-well pin tool (V&P Scientific). The final concentration of compound for screening was 10 μM and the final DMSO concentration was 0.1%. 1 μL of tetracycline (final concentration 1 μg/mL) was added to compound containing and negative control wells by Multidrop Combi to induce expression. 1 μL of media was added to positive control wells. Assay plates were centrifuged and incubated for 72 hours at 37° C., 5% CO2. CellTiter-Glo (Promega) was used to measure cell viability in the assay wells according to the manufacturer's instructions. 10 μL/well of CellTiter-Glo reagent was added to the assay plates using a MultiDrop Combi. The plates were shaken on a Thermomixer R (Eppendorf) at 1100 rpm for 1 minute and incubated in the dark for 10 minutes at room temperature. Luminescence was read on an Envision plate reader (PerkinElmer) with 0.3 second sampling time per well. Raw data (luminescence counts per second) was normalized to percent effect by the formula 100−(((sample−negative control mean)/(positive control mean−negative control mean))*100).
(§3) Data was analyzed using the programs Excel (Microsoft) and Prism (GraphPad). Errors are SD unless otherwise indicated in the legend. Dose-response curves were fitted with a four-parameter logistic equation: F(x)=D+(A−D)/(1+(x/C)^B), with A=minimum inhibition B=Hill's slope C=inflection point D=maximum inhibition Synthesis of Macrolide Derivatives
(§4) Cellular ATP levels were measured as a proxy for cell viability, using a commercially available luciferase assay (Crouch et al., 1993, Proc. Natl. Acad. Sci. U.S.A. 109:2533-2538).
(§5) Conditions were designed to maximize reproducibility and the signal-to-background ratios (S/B) (Zhang et al., 1999, J. Biomol. Screen 4:67-73) comparing ATP level in uninduced and induced cells. Screening was performed in 384-well plates; compounds were added 24 hours after plating, and channel expression was induced immediately after compound addition. ATP levels were measured 72 hours after induction.
Levels of ATP in uninduced and induced cells without added test compound defined 100% and 0% effect, respectively, and served as a proxy for lethality.

[2] = target: T2, KCNJ5^L168R (Homo sapiens, UniProt P48544, L168R); assay: Cell viability assay (ATP, CellTiter-Glo): rescue of KCNJ5^L168R-induced lethality in inducible HEK293 cells; conditions: for dose response on KCNJ5^L168R: tested at 1.1, 3.3 and 10 μM
T2 construct: expressed in transfected cells
T2 sequence (P48544 1-419 L168R): T1 sequence (P48544 1-419 G151R) with R151G, L168R
Procedure: as §1, §2, §3, §4, §5

[3] = target: T3, KCNJ5^WT (Homo sapiens, UniProt P48544); assay: Membrane potential assay (FLIPR dye) in inducible KCNJ5^WT HEK293 cells; conditions: for WT IC50: 10-point dilution 20 to 0.0391 μM, N=3, four-parameter fit
T3 construct: expressed in transfected cells
T3 sequence (P48544 1-419): T1 sequence (P48544 1-419 G151R) with R151G
Procedure: as §1, with “Single” for “WT or mutant human KCNJ5 cDNAs (Choi et al., 2011, Science 331:768-772) were subcloned into the pcDNA5/FRT/TO vector using BamHI and HindIII. Single”
20 μL of WT cells were plated into sterile black with clear bottom tissue culture-treated 384-well plates (Corning) at a density of 10000 cells/well using a Multidrop Combi. Assay plates were centrifuged at 500 rpm for 10 seconds and incubated overnight at 37° C. in a humidified 5% CO2 incubator. After the overnight incubation, 1 μL of tetracycline (final conc. 1 μg/mL) was added to all wells by Multidrop Combi to induce KCNJ5. Assay plates were centrifuged at 500 rpm for 10 seconds and incubated overnight at 37° C. in a humidified 5% CO2 incubator. The next day, 10 μL of medium was removed from each well using a PlateMate Plus (Thermo Scientific). 10 μL of Blue Formula FLIPR membrane potential dye (Molecular Devices) was added to cells using a Multichannel pipettor. Assay plates were incubated for 30 minutes. at 37° C. After incubation, 20 nL was transferred twice from the compound source plate to the cell assay plate using an Aquarius with a 384-well pin tool for a total transfer volume of 40 nL and a final DMSO concentration of 0.2%. 1 μL of 20 mM BaCl2 was added to positive control wells using a Multichannel pipettor. The assay plate was incubated 20 minutes at room temperature in the dark.
Changes in membrane potential were detected using a well-established fluorescence-based measure of membrane potential (FIG. 4).

[4] = 10-point dilution 20 to 0.0391 μM, N=3, four-parameter fit
[5] = tested as in FIG. 7 (FIGS. 9 and 10)

SMILES	G151R maximum inhibition [1, 4] [%]	G151R minimum inhibition [1, 4] [%]	IC50 [1, 4] [µM]	IC50 [2, 4] [µM]	L168R maximum inhibition [2, 4] [%]	L168R minimum inhibition [2, 4] [%]	dose response on KCNJ5^L168R [2]	WT IC50 [3]	viability at 10 µM ([1]; HEK293, 72 h, mean of primary screen and hit pick, read-out: mean % effect) [%]	viability at 10 µM ([1]; HEK293, ATP level 72 h after induction, uninduced = 100%, induced = 0% effect, first of the two runs (primary screen / hit pick), read-out: % effect (1)) [%]	viability at 10 µM ([1]; HEK293, ATP level 72 h after induction, uninduced = 100%, induced = 0% effect, second of the two runs (primary screen / hit pick, confirmatory testing), read-out: % effect (2)) [%]	G151R IC50 [1, 4]	inhibition of KCNJ5^MUT (structure-activity statement) ([1]; macrolide series, dilution curves)	L168R IC50 [2, 4]	WT IC50 ([3]; listed as idremcinal)	inhibition of KCNJ5^G151R by synthesized macrolide derivatives [1, 5]	inhibition of KCNJ5^L168R by synthesized macrolide derivatives [2, 5]	inhibition of KCNJ5^WT by synthesized macrolide derivatives [3, 5]
CC[C@H]1OC(=O)[C@H](C)[C@@H](O[C@H]2C[C@@](C)(OC)[C@@H](O)[C@H](C)O2)[C@H](C)[C@@H](O[C@@H]2O[C@H](C)C[C@H](N(C)C)[C@H]2O)[C@](C)(O)C[C@@H](C)C(=NO)[C@H](C)[C@@H](O)[C@]1(C)O [Erythromycin A Oxime, erythromycin A oxime]	84.11	2.49	2.88	8.13	60.00	0.65	showed a dose response	No fit	–	–	–	–	–	–	–	–	–	–
CC[C@H]1OC(=O)[C@H](C)[C@@H](O[C@H]2C[C@@](C)(OC)[C@@H](O)[C@H](C)O2)[C@H](C)[C@@H](O[C@@H]2O[C@H](C)C[C@H](N(C)C)[C@H]2O)[C@](C)(O)C[C@@H](C)C(=O)[C@H](C)[C@@H](O)[C@H]1C [Erythromycin B, erythromycin B]	84.36	7.15	1.23	4.73	80.00	1.62	–	No fit	–	–	–	–	–	–	–	–	–	–
CC[C@H]1OC(=O)[C@H](C)[C@@H](O[C@H]2C[C@@](C)(O)[C@@H](O)[C@H](C)O2)[C@H](C)[C@@H](O[C@@H]2O[C@H](C)C[C@H](N(C)C)[C@H]2O)[C@](C)(O)C[C@@H](C)C(=O)[C@H](C)[C@@H](O)[C@]1(C)O [Erythromycin C, erythromycin C]	75.00	6.72	9.19	12.2	18.43	1.41	–	No fit	–	–	–	–	–	–	–	–	–	–
CC[C@H]1OC(=O)[C@H](C)[C@@H](O[C@H]2C[C@@](C)(OC)[C@@H](O)[C@H](C)O2)[C@H](C)[C@@H](O[C@@H]2O[C@H](C)C[C@H](N(C)C)[C@H]2O)[C@](C)(O)C[C@@H](C)C(=O)[C@H](C)[C@@H](O)[C@]1(C)O [Erythromycin, erythromycin]	90.00	3.55	10.5	11.8	25.00	0.71	showed a dose response	No fit	73	91.9	54.2	–	–	–	–	–	–	–
CC[C@H]1OC(=O)[C@H](C)[C@@H](O[C@H]2C[C@@](C)(OC)[C@@H](O)[C@H](C)O2)[C@H](C)[C@@H](O[C@@H]2O[C@H](C)C[C@H](N(C)C)[C@H]2O)[C@](C)(O)C[C@](C)(F)C(=O)[C@H](C)[C@@H](O)[C@]1(C)O [Flurithromycin, flurithromycin]	–	–	–	–	–	–	–	No fit	–	–	–	No fit	negligible activity	No fit	–	–	–	–
CC[C@H]1OC(=O)[C@H](C)[C@@H](O[C@H]2C[C@@](C)(OC)[C@@H](O)[C@H](C)O2)[C@H](C)[C@@H](O[C@@H]2O[C@H](C)C[C@H](N(C)C(C)C)[C@H]2O)[C@@]2(C)CC(C)=C(O2)[C@H](C)[C@@H](O)[C@]1(C)O [Idremcinal, idremcinal]	93.39	6.38	0.6	1.99	66.69	−1.28	–	No fit	–	–	–	–	–	–	no dose response	–	–	–
CC[C@H]1OC(=O)[C@H](C)[C@@H](O[C@H]2C[C@@](C)(OC)[C@@H](O)[C@H](C)O2)[C@H](C)[C@@H](O[C@@H]2O[C@H](C)C[C@H](NC)[C@H]2O)[C@](C)(O)C[C@@H](C)/C(=N\OCOCCOC)[C@H](C)[C@@H](O)[C@]1(C)O [N-demethyl Roxithromycin, N-demethyl roxithromycin]	96.20	4.50	0.82	1.18	76.95	1.12	showed a dose response	No fit	–	–	–	–	–	–	–	–	–	–
CCCCN(C)[C@H]1C[C@@H](C)O[C@@H](O[C@@H]2[C@@H](C)[C@H](O[C@H]3C[C@@](C)(OC)[C@@H](O)[C@H](C)O3)[C@@H](C)C(=O)O[C@H](CC)[C@@](C)(O)[C@H](O)[C@@H](C)[C@@H](O)[C@H](C)C[C@@]2(C)O)[C@@H]1O [PLUX33, N-demethyl-9-deoxo-9-hydroxy-N-butyl-(9S)-erythromycin]	–	–	–	–	–	–	–	–	–	–	–	–	–	–	–	significant inhibition	significant inhibition	no inhibition
